Experimental data: patent publication US8030341B2, “Dmt-derivative compounds and related compositions and methods of use” (priority 2005, dated 2011)
Where a name gives a salt, the structure may show the parent alone. Read-outs that look alike come from different tables or passages of the source. Non-standard residues stand in square brackets, D forms with d. Residues, ends and D or L forms follow the SMILES beside them. Dmt = Cc1cc(O)cc(C)c1C[C@H](N)C(=O)O; Tic = O=C(O)[C@@H]1Cc2ccccc2CN1

Assays:
[1] = biological target: T1, δ-opioid receptor (Mus musculus, UniProt P32300); conditions: Table 2; reference value marked 6a; cited from earlier work
T1 construct: The isolated tissues were suspended in organ baths containing balanced salt solutions; from tissue; host or cells: isolated mouse vas deferens
T1 sequence (P32300 whole entry): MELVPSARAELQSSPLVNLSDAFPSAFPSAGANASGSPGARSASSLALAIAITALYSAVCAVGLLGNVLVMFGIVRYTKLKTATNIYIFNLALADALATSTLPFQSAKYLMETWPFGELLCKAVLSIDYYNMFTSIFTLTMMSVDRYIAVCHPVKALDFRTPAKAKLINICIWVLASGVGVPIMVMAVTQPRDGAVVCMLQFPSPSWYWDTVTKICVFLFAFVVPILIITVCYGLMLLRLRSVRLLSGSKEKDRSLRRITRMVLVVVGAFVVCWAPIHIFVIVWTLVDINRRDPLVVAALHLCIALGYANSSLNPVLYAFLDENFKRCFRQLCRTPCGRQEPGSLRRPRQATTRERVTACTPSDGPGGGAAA

[2] = biological target: T2, μ-opioid receptor (Cavia porcellus, UniProt P97266); conditions: Table 2; reference value marked 6a; cited from earlier work
T2 sequence (P97266 whole entry, looked up): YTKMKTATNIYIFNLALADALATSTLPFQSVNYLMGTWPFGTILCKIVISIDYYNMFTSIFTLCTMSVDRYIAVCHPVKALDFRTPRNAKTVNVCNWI

[3] = biological target: T1, δ-opioid receptor; assay: mouse vas deferens (MVD) bioassay; format: cell-based
Excerpt: Bioorg. Med. Chem., 11: 675-678 (2003). The isolated tissues were suspended in organ baths containing balanced salt solutions in a physiological buffer, pH 7.5. […]

[4] = biological target: T3, δ-opioid receptor (Rattus norvegicus, UniProt P33533); assay: opioid receptor binding competition assay, rat brain P2 synaptosomal membranes (δ)
T3 construct: from tissue; host or cells: rat brain P2 synaptosomal membranes (Sprague-Dawley)
T3 sequence (P33533 whole entry): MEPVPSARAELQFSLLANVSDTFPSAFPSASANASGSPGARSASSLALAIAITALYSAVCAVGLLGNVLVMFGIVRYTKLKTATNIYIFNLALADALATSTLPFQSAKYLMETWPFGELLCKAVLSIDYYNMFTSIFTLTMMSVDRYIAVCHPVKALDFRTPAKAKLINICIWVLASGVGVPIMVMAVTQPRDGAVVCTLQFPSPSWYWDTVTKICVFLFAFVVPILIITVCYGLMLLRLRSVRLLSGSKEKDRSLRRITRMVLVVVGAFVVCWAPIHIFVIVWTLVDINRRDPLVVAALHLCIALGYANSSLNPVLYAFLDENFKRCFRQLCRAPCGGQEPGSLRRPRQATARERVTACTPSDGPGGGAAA
Protocol: (§1) Synaptosomes were preincubated to remove endogenous opioids, washed in excess ice-cold buffer containing protease inhibitor and stored in a glycerol-containing buffer with protease inhibitor at −80° C. as described in Lazarus et al., J. Med. Chem. 34:1350-55 (1991). […] After incubation, the radiolabeled membranes were rapidly filtered on Whatman GF/C glass fiber filters presoaked in 0.1% polyethylenimine in order to optimize the signal-to-noise ratio, washed with ice-cold BSA buffer, and dried at 75-80° C. Radioactivity was determined using EcoLume (ICN, Costa Mesa, Calif.). All compounds were analyzed in duplicate using 5-8 peptide dosages and several synaptosomal preparations in independent repetitions to ensure statistical significance. The affinity constants (Ki) were calculated according to Cheng and Prusoff (Cheng et al., Biochem. Pharmacol., 22: 3099-3108 ([…])).

[5] = biological target: T4, μ-opioid receptor (Rattus norvegicus, UniProt P33535); assay: opioid receptor binding competition assay, rat brain P2 synaptosomal membranes (μ); conditions: for Ki(δ)/Ki(μ): Table 3, selectivity ratio
T4 construct: from tissue; host or cells: rat brain P2 synaptosomal membranes (Sprague-Dawley)
T4 sequence (P33535 whole entry): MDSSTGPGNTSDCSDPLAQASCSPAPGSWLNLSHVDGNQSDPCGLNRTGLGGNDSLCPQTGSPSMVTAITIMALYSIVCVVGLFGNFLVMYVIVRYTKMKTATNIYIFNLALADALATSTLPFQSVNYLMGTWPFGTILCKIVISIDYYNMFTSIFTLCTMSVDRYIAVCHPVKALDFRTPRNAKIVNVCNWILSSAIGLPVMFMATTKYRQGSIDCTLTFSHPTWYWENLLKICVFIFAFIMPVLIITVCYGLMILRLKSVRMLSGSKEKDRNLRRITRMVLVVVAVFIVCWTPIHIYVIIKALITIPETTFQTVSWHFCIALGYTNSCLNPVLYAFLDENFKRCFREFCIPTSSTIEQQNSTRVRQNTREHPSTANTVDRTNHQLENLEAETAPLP
Protocol: as §1

[6] = biological target: T2, μ-opioid receptor; assay: guinea pig ileum (GPI) bioassay; format: cell-based
Protocol: The myenteric plexus longitudinal muscle preparations (2-3 cm segments) from the small intestine of male Hartley strain guinea pigs (GP1) measured μ-opioid receptor agonism and a single mouse vas deferens (MVD) was used to determine δ-opioid receptor agonism as described in Sasaki et al. Bioorg. […] The isolated tissues were suspended in organ baths containing balanced salt solutions in a physiological buffer, pH 7.5. Agonists were tested for the inhibition of electrically evoked contraction and expressed as IC50 (nM) obtained from the dose-response curves.

[7] = biological target: T3, δ-opioid receptor; conditions: Table 3; reference rows marked e, f, g (no SE, no n); cited from earlier work
[8] = biological target: T4, μ-opioid receptor; conditions: Table 3, reference rows marked e, f, cited from earlier work; for Ki(δ)/Ki(μ): g
[9] = Table 2, versus deltorphin II, antilog of pA2

Compound: Oc1ccc2c3c1O[C@H]1c4[nH]c5ccccc5c4C[C@@]4(O)[C@@H](C2)N(CC2CC2)CC[C@]314 [Naltrindole]
- MVD Antagonist pA2 [1]: 9.2
- MVD Antagonist pA2 (nM), value in parentheses (Ke) [1]: 0.631 nM
- GPI Antagonist pA2 [2]: 7.3
- GPI Antagonist pA2 (nM), value in parentheses (Ke) [2]: 50 nM

Compound: Cc1cc(O)cc(C)c1C[C@H](N)C(=O)N1Cc2ccccc2C[C@H]1C(=O)O [H-Dmt-Tic-OH, reference compound] (H-[Dmt]-[Tic]-OH)
- MVD agonist IC50, nM ([3]; Table 2, inhibition of electrically evoked contraction): none

Compound: C=CCN[C@@H](Cc1c(C)cc(O)cc1C)C(=O)NCCCc1[nH]c(=O)c(CCCNC(=O)[C@H](Cc2c(C)cc(O)cc2C)NCC=C)nc1C [Compound 32, Bis-[(N-allyl)Dmt-NH-propyl]pyrazinone]
- Ki [4]: 51.5 ± 4.1 nM
- Ki [5]: 12.4 ± 1.1 nM
- Ki(δ)/Ki(μ) [5]: 4
- Kb [3]: 269 nM
- IC50 ([3]; Table 4, agonism, read-out: MVD): > 10000 nM
- Kb [6]: 67.6 nM
- IC50 ([6]; Table 4, agonism, read-out: GPI): > 10000 nM
- pA2(μ)/pA2(δ) ([6]; Table 4, selectivity of antagonism): 4

Compound: 3-(Dmt-Tic-NH-butyl)-6-(Dmt-Tic-NH-propyl)-2(1H)-pyrazinone [Compound 13]
- Ki ([4]; Table 1, rat brain synaptosomes, footnote a: versus [3H]DAMGO, read-out: Ki(δ)): 0.092 ± 0.01 nM
- Ki(μ)/Ki(δ) ([4]; Table 1, selectivity ratio): 25
- Ki ([5]; Table 1, rat brain synaptosomes, footnote b: versus [3H]DPDPE, read-out: Ki(μ)): 2.28 ± 0.03 nM
- IC50 ([3]; Table 2, inhibition of electrically evoked contraction, read-out: MVD agonist IC50): > 10000 nM
- MVD Antagonist pA2 ([3]; Table 2, versus deltorphin II as agonist): 10.47
- MVD Antagonist pA2 (nM), value in parentheses (Ke) [3, 9]: 0.0339 nM
- IC50 ([6]; Table 2, inhibition of electrically evoked contraction, read-out: GPI agonist IC50): > 10000 nM
- GPI Antagonist pA2 (nM), value in parentheses (Ke) ([6]; Table 2, versus endomorphin-2, antilog of pA2): 112 nM
- GPI Antagonist pA2 ([6]; Table 2, versus endomorphin-2 as agonist): 6.95

Compound: Cc1cc(O)cc(C)c1CC(C(=O)N1Cc2ccccc2CC1C(=O)NCCCCCCNC(=O)C1Cc2ccccc2CN1C(=O)C(Cc1c(C)cc(O)cc1C)N(C)C)N(C)C (stereo not drawn) [Compound 21, 1,6-Bis(N,N-Dimethyl-Dmt-Tic-NH)-hexane]
- Ki [4]: 0.06 ± 0.01 nM
- Ki(μ)/Ki(δ) ([4]; Table 1, selectivity ratio): 37
- Ki [5]: 2.21 ± 0.08 nM
- IC50 [3]: > 10000 nM
- MVD Antagonist pA2 (nM), value in parentheses (Ke) [3, 9]: 0.0052 nM
- IC50 [6]: > 10000 nM
- Kb [6]: 4 nM

Compound: C=CCN(CC=C)[C@@H](Cc1ccc(O)cc1)C(=O)N1CCC[C@H]1C(=O)N[C@@H](Cc1ccccc1)C(=O)N[C@@H](Cc1ccccc1)C(N)=O [Compound 28, [N,N-Diallyl-Tyr^1]EM-2]
- Ki [4]: 5760 ± 1220 nM
- Ki [5]: 1050 ± 175 nM
- Ki(δ)/Ki(μ) [5]: 6

Compound: Cc1cc(O)cc(C)c1CC(N)C(=O)N1Cc2ccccc2CC1C(=O)NCc1[nH]c(=O)c(CNC(=O)C2Cc3ccccc3CN2C(=O)C(N)Cc2c(C)cc(O)cc2C)nc1C (centres unmarked) (as salt: HCl) [Compound 8]
- melting point: 224 to 226 °C (dec.)

Compound: Cc1cc(O)cc(C)c1CC(N)C(=O)N1Cc2ccccc2CC1C(=O)NCCCCCCCCCCNC(=O)C1Cc2ccccc2CN1C(=O)C(N)Cc1c(C)cc(O)cc1C (centres unmarked) [Compound 20, 1,10-Bis(Drat-Tic-amino)decane]
- Ki [4]: 1.53 ± 0.16 nM
- Ki(μ)/Ki(δ) ([4]; Table 1, selectivity ratio): 3
- Ki [5]: 4.86 ± 0.41 nM
- IC50 [3]: > 10000 nM
- MVD Antagonist pA2 (nM), value in parentheses (Ke) [3, 9]: 0.0107 nM
- IC50 [6]: 5420 ± 1840 nM

Compound: H-Dmt-Pro-Phe-Phe-NH2 [[Dmt^1]EM-2]
- Ki [7]: 28.2 nM
- Ki ([8]; g (no SE, no n)): 0.15 nM
- Ki(δ)/Ki(μ) [8]: 188

Compound: Cc1cc(O)cc(C)c1CC(C(=O)N1Cc2ccccc2CC1C(=O)NCCCCCCNC(=O)C1Cc2ccccc2CN1C(=O)C(Cc1c(C)cc(O)cc1C)N(C)C)N(C)C (stereo not drawn) (as salt: HCl) [Compound 21, 1,6-Bis(N,N-Dimethyl-Dmt-Tic-NH)-hexane]
- melting point: 195 to 197 °C

Compound: Cc1cc(O)cc(C)c1CC(N)C(=O)N1Cc2ccccc2CC1C(=O)NCc1[nH]c(=O)c(CNC(=O)C2Cc3ccccc3CN2C(=O)C(N)Cc2c(C)cc(O)cc2C)nc1C (centres unmarked) [Compound 8]
- Ki [4]: 0.163 ± 0.018 nM
- Ki(μ)/Ki(δ) [4]: 23
- Ki [5]: 3.76 ± 0.3 nM
- MVD Antagonist pA2 (nM), value in parentheses (Ke) [3]: 11.22 (0.006) nM
- IC50 ([3]; read-out: MVD agonist IC50): > 10000 nM
- IC50 ([6]; read-out: GPI agonist IC50): > 10000 nM

Compound: Cc1cc(O)cc(C)c1C[C@H](N)C(=O)NCCCCCCNC(=O)[C@@H](N)Cc1c(C)cc(O)cc1C [H-Dmt[NH—(CH2)6—NH]Dmt-H]
- Ki(δ)/Ki(μ) [8]: 870
